Source: patent US20240319202A1, “METHOD FOR EVALUATING AGGREGATION STATE OF AGGREGATIVE PROTEIN” (HAMAMATSU PHOTONICS K.K., priority 2023, published 2024)

Columns and labels:
[1] = molecular target: T1, horseradish peroxidase (HRP) (Armoracia rusticana, UniProt P00433); experiment: Evaluation of aggregation state of heat-denatured horseradish peroxidase using light-absorption/fluorescence characteristics of rose bengal as index; conditions: HRP 5 μM, dye 1 μM, heat-stirred at 70° C., PBS pH 7.4
T1 construct: purchased FUJIFILM Wako Pure Chemical Corporation
T1 sequence (P00433 31-338): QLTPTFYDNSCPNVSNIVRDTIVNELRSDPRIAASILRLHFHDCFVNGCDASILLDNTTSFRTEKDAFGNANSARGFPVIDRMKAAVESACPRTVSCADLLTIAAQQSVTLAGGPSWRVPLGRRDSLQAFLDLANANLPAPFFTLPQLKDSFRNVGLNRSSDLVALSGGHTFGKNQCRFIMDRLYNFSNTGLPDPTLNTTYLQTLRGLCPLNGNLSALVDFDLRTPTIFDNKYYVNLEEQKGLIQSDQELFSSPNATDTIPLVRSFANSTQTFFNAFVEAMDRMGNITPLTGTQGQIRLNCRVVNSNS
Protocol: 40 mg of horseradish peroxidase (HRP, manufactured by FUJIFILM Wako Pure Chemical Corporation) was added to 2 mL of phosphate buffered saline at pH 7.4, and dissolved by being left to stand. The obtained HRP solution was heat-stirred at 200 rpm at 70° C. to cause heat denaturation of the HRP, thereby starting the aggregation reaction of the HRP. At 0, 5, 10, 15, 20, 25, 30, 35, 40, 50, 60, 70, 80, and 90 minutes after starting heat-stirring, each of 100 μL of the HRP solution was extracted and ice-cooled. The ice-cooled HRP solution, and rose bengal (manufactured by FUJIFILM Wako Pure Chemical Corporation) were added to distilled water such that final concentrations were each 5 μM and 1 μM. The obtained solution was put in a spectroscopic measurement cell to measure the light-absorption/fluorescence characteristics. The excitation wavelength in fluorescence measurement was 530 nm.

[2] = molecular target: T2, lysozyme (Gallus gallus, UniProt P00698); experiment: Evaluation of aggregation state of heat-denatured lysozyme using light-absorption/fluorescence characteristics of a xanthene dye as index; conditions: lysozyme 7 μM, dye 1 μM, heat-stirred at 60° C.
T2 construct: purchased FUJIFILM Wako Pure Chemical Corporation
Protocol: 40 mg of lysozyme (manufactured by FUJIFILM Wako Pure Chemical Corporation) was added to 2 mL of an aqueous solution of 25 mM of hydrochloric acid and 100 mM of sodium chloride, and dissolved by being left to stand. The obtained lysozyme solution was heat-stirred at 200 rpm at 60° C. to cause heat denaturation of the lysozyme, thereby starting the aggregation reaction of the lysozyme. At 0, 10, 20, 25, 30, 35, 40, 45, 50, 60, 70, 80, and 90 minutes after starting heat-stirring, each of 100 μL of the lysozyme solution was extracted and ice-cooled. The ice-cooled lysozyme solution, and rose bengal (manufactured by FUJIFILM Wako Pure Chemical Corporation) were added to distilled water such that final concentrations were each 7 μM and 1 μM. The obtained solution was put in a spectroscopic measurement cell to measure the light-absorption/fluorescence characteristics. The excitation wavelength in fluorescence measurement was 530 nm.
Sample preparation and light absorption and fluorescence measurement were performed in the same manner as in Example 1 except that eosin Y (manufactured by FUJIFILM Wako Pure Chemical Corporation) was used instead of rose bengal as the xanthene dye, and that the excitation wavelength in fluorescence measurement was set to 500 nm. […]

T2 sequence (P00698 19-147): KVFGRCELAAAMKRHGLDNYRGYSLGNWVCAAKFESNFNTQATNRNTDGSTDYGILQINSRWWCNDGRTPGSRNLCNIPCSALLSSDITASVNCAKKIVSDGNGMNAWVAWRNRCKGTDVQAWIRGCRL

Structure (SMILES)	heat denaturation time at the minimum point of maximum absorbance (decreasing, thereafter increasing) ([1]; HRP absorption subtracted)	heat denaturation time at the minimum point of fluorescence intensity at around 570 nm and maximum fluorescence intensity (decreasing, thereafter increasing) ([1]; excitation 530 nm)	shape of the absorption spectra, maximum absorption wavelength and maximum absorbance versus heat denaturation time [2]
O=C(O)c1c(Cl)c(Cl)c(Cl)c(Cl)c1-c1c2cc(I)c(=O)c(I)c-2oc2c(I)c(O)c(I)cc12 [rose bengal]	around 20 minutes	around 20 minutes	–
O.O=C([O-])c1ccccc1-c1c2cc(I)c(=O)c(I)c-2oc2c(I)c([O-])c(I)cc12.[Na+].[Na+] [erythrosin B]	–	–	changed depending on a heat denaturation time
